# Results: patent US6713475B2, “Tricyclic benzodiazepines as vasopressin receptor antagonists” (Ortho-McNeil Pharmaceutical, Inc., priority 1999, dated 2004)
# Tests used:
# V2 = V2 (Homo sapiens, UniProt P30518); assay: In vitro recombinant vasopressin receptor binding assay (V2 Bdg), displacement of 3H-arginine vasopressin; parameters: expressed in transfected cells; host or cells: HEK-293; settings: for V2 Bdg % inh: 0.1 uM, printed in parentheses in place of IC50; for IC50: membrane with cloned human V-2 receptor (HEK-293)
# Summary of the method: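 Displacement of ³H-vasopressin from membranes of HEK-293 cells bearing cloned human V-2 receptor, incubated with test compound one hour at room temperature. Bound label was collected on PEI-soaked GF/C filters, washed with cold saline/0.05% Tween 20, and counted by scintillation.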
# human V-1 receptor = biological target: T1, human V-1 receptor (Homo sapiens, UniProt P37288); assay: In vitro recombinant vasopressin receptor binding assay (V1 Bdg), displacement of 3H-arginine vasopressin; settings: for inhibition at 0.1 µM: read-out: V1 Bdg (% inh, 0.1 uM)
# T1 construct: expressed in transfected cells; host or cells: HEK-293
# T1 sequence (P37288 whole entry): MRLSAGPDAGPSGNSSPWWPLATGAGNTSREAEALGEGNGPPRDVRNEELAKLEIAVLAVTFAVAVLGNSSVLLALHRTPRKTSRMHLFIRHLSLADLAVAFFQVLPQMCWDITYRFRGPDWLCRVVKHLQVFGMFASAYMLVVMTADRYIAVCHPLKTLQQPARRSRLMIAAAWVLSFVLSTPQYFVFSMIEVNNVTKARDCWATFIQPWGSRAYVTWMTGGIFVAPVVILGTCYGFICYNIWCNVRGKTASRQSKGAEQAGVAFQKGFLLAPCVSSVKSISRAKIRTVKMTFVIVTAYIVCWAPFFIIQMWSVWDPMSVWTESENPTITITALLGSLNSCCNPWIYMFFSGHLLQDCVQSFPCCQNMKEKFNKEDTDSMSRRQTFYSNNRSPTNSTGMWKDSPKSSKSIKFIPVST
# Description: In vitro Recombinant Vasopressin Receptor Binding Assay
# Compounds were assessed for their ability to displace ^3H-arginine vasopressin from the human V-1 or V-2 receptor in HEK-293 cells. Assay buffer is 50 mM Tris-Cl, 5 mM MgCl2, 0.1% BSA (pH 7.5) containing 5 ug/ml of aprotinin, leupeptin, pepstatin, 50 ug/ml bacitracin, and 1 mM Pefabloc. ^3H-vasopressin is ^3H-arginine-8-vasopressin (68.5 Ci/mmol, final concentration in assay is 0.65-0.75 nM). Into wells of 96-well round bottom polypropylene plates were added buffer, test compound, membrane (containing cloned human V-1 or V-2 receptor), and ^3H-vasopressin. The reaction plates were allowed to sit at room temperature for one hour. The samples were filtered through Unifilter GF/C plates (presoaked in 0.3 polyethyleneimine). The plates were washed 5 times with cold physiological saline containing 0.05% Tween 20. After drying, the bottom of the filter plates were sealed and 0.025 ml of Microscint-20 was added to each filter. The top of the plate was sealed, and the plate was counted. Non-specific binding was determined by the addition of 1.25 uM arginine-8-vasopressin in those wells.
IC50 (V2) [nM],inhibition at 0.1 µM (human V-1 receptor) [%],Compound,V2 Bdg % inh (V2),V1 Bdg % inh (human V-1 receptor; 1 uM),also measured
–,–,"CN1CCN2Cc3ccccc3N(C(=O)c3ccc(NC(=O)c4c(F)cccc4F)cc3Cl)CC2C1 (racemic) [Compound 99, (RS)-2,6-Difluoro-N-[3-chloro-4-(1,3,4,12a-tetrahydro-2-methyl-6H-[1,4]pyrazino[4,3-a][1,4]-benzodiazepin-11(12H)-yl-carbonyl)phenyl]benzamide]",(10%/0.1 uM),(12%/1 uM),–
12,60,"Cc1ccc(-c2ccccc2C(=O)Nc2ccc(C(=O)N3CC4COCCN4Cc4ccccc43)c(Cl)c2)cc1 (racemic) [Compound 25, (RS)-2-(4-Methyl-phenyl)-N-[3-chloro-4-(1,3,4,12a-tetrahydro-6H-[1,4]oxazino[4,3-a][1,4]-benzodiazepin-11(12H)-yl-carbonyl)phenyl]benzamide]",–,–,–
18,9,"O=C(Nc1ccc(C(=O)N2CC3CSCCN3Cc3cc(F)ccc32)c(Cl)c1)c1ccccc1-c1ccccc1 (racemic) [Compound 38, (RS)-2-Phenyl-N-[3-chloro-4-(8-fluoro-1,3,4,12a-tetrahydro-6H-[1,4]thiazino[4,3-a][1,4]-benzodiazepin-11 (12H)-yl-carbonyl)phenyl]benzamide]",–,–,–
10,33,"O=C(Nc1ccc(C(=O)N2CC3COCCN3Cc3ccccc32)c(O)c1)c1ccccc1-c1ccccc1 (racemic) [Compound 23, (RS)-2-Phenyl-N-[3-hydroxy-4-(1,3,4,12a-tetrahydro-6H-[1,4]oxazino[4,3-a][1,4]-benzodiazepin-11(12H)-yl-carbonyl)phenyl]benzamide]",–,–,–
–,–,"(RS)-3,5-Dimethyl-N-[3-chloro-4-(1,3,4,12a-tetrahydro-6H-[1,4]thiazino[4,3-a][1,4]-benzodiazepin-11(12H)-yl-carbonyl)phenyl]benzamide [Compound 41]",(38%/0.1 uM),–,"V1 Bdg (% inh, 0.1 uM) (human V-1 receptor): 5%"
16,34,"Cc1ccccc1C(=O)Nc1ccc(C(=O)N2CC3COCCN3Cc3ccccc32)c(Cl)c1 (racemic) [Compound 24, (RS)-2-Methyl-N-[3-chloro-4-(1,3,4,12a-tetrahydro-6H-[1,4]oxazino[4,3-a][1,4]-benzodiazepin-11(12H)-yl-carbonyl)phenyl]benzamide]",–,–,–
14,74,"Cc1ccc(-c2ccccc2C(=O)Nc2ccc(C(=O)N3CC4COCCN4Cc4ccccc43)c(F)c2)cc1 (racemic) [Compound 30, (RS)-2-(4-Methyl-phenyl)-N-[3-fluoro-4-(1,3,4,12a-tetrahydro-6H-[1,4]oxazino[4,3-a][1,4]-benzodiazepin-11(12H)-yl-carbonyl)phenyl]benzamide]",–,–,–
9,15,"Cc1cccc(C)c1C(=O)Nc1ccc(C(=O)N2CC3COCCN3Cc3ccccc32)c(Cl)c1 (racemic) [Compound 10, (RS)-2,6-Dimethyl-N-[3-chloro-4-(1,3,4,12a-tetrahydro-6H-[1,4]oxazino[4,3-a][1,4]-benzodiazepin-11(12H)-yl-carbonyl)phenyl]benzamide]",–,–,–
–,–,"O=CN1CCN2Cc3ccccc3N(C(=O)c3ccc(NC(=O)c4ccccc4-c4ccccc4)cc3)CC2C1 (racemic) [Compound 59, (RS)-2-Phenyl-N-[4-(1,3,4,12a-tetrahydro-2-formyl-6H-[1,4]pyrazino[4,3-a][1,4]-benzodiazepin-11(12H)-yl-carbonyl)phenyl]benzamide]",(29%/0.1 uM),–,V1 Bdg % inh (human V-1 receptor; 10 uM): (17%/10 uM)
–,–,"COc1ccc(-c2ccccc2C(=O)Nc2ccc(C(=O)N3CC4CN(C)CCN4Cc4ccccc43)c(Cl)c2)cc1 (racemic) [Compound 67, (RS)-2-(4-Methoxy-phenyl)-N-[3-chloro-4-(1,3,4,12a-tetrahydro-2-methyl-6H-[1,4]pyrazino[4,3-a][1,4]-benzodiazepin-11(12H)-yl-carbonyl)phenyl]benzamide]",(36%/0.1 uM),(14%/1 uM),–
–,–,"CN1CCN2Cc3ccccc3N(C(=O)c3ccc(NC(=O)c4cccc(Cl)c4Cl)cc3Cl)CC2C1 (racemic) [Compound 97, (RS)-2,3-Dichloro-N-[3-chloro-4-(1,3,4,12a-tetrahydro-2-methyl-6H-[1,4]pyrazino[4,3-a][1,4]-benzodiazepin-11(12H)-yl-carbonyl)phenyl]benzamide]",(9%/0.1 uM),(21%/1 uM),–
–,–,"Cc1ccccc1C(=O)Nc1c(C)cc(C(=O)N2CC3CN(C)CCN3Cc3ccccc32)cc1C (racemic) [Compound 80, (RS)-2-Methyl-N-[2,6-dimethyl-4-(1,3,4,12a-tetrahydro-2-methyl-6H-[1,4]pyrazino[4,3-a][1,4]-benzodiazepin-11(12H)-yl-carbonyl)phenyl]benzamide]",(6%/0.1 uM),(19%/1 uM),–
–,–,"Cc1c(F)cccc1C(=O)Nc1ccc(C(=O)N2CC3CN(C)CCN3Cc3ccccc32)c(Cl)c1 (racemic) [Compound 102, (RS)-2-Methyl-3-fluoro-N-[3-chloro-4-(1,3,4,12a-tetrahydro-2-methyl-6H-[1,4]pyrazino[4,3-a][1,4]-benzodiazepin-11(12H)-yl-carbonyl)phenyl]benzamide]",(20%/0.1 uM),(12%/1 uM),–
–,–,"Cc1ccc(-c2ccccc2C(=O)Nc2ccc(C(=O)N3CC4CN(C)CCN4Cc4ccccc43)c(C(F)(F)F)c2)cc1 (racemic) [Compound 76, (RS)-2-(4-Methyl-phenyl)-N-[3-trifluoromethyl-4-(1,3,4,12a-tetrahydro-2-methyl-6H-[1,4]pyrazino[4,3-a][1,4]-benzodiazepin-11(12H)-yl-carbonyl)phenyl]benzamide]",(50%/0.1 uM),(18%/1 uM),–
–,–,"(RS)-3,5-Dichloro-N-[3-chloro-4-(1,3,4,12a-tetrahydro-6H-[1,4]thiazino[4,3-a][1,4]-benzodiazepin-11(12H)-yl-carbonyl)phenyl]benzamide [Compound 43]",(47%/0.1 uM),–,"V1 Bdg (% inh, 0.1 uM) (human V-1 receptor): 11%"
–,–,"O=C(Nc1ccc(C(=O)N2CC3CN(CC(F)(F)F)CCN3Cc3ccccc32)c(Cl)c1)c1ccccc1-c1ccccc1 (racemic) [Compound 91, (RS)-2-Phenyl-N-[3-chloro-4-(1,3,4,12a-tetrahydro-2-(2,2,2-trifluoroethyl)-6H-[1,4]pyrazino[4,3-a][1,4]-benzodiazepin-11(12H)-yl-carbonyl)phenyl]benzamide]",(31%/0.1 uM),(2%/1 uM),–
–,–,"COc1cccc(-c2ccccc2C(=O)Nc2ccc(C(=O)N3CC4CN(C)CCN4Cc4ccccc43)c(Cl)c2)c1 (racemic) [Compound 68, (RS)-2-(3-Methoxy-phenyl)-N-[3-chloro-4-(1,3,4,12a-tetrahydro-2-methyl-6H-[1,4]pyrazino[4,3-a][1,4]-benzodiazepin-11(12H)-yl-carbonyl)phenyl]benzamide]",(37%/0.1 uM),(7%/1 uM),–
6,3,"Cc1cc(NC(=O)c2ccccc2-c2ccccc2)ccc1C(=O)N1CC2COCCN2Cc2ccccc21 (racemic) [Compound 29, (RS)-2-Phenyl-N-[3-methyl-4-(1,3,4,12a-tetrahydro-6H-[1,4]oxazino[4,3-a][1,4]-benzodiazepin-11(12H)-yl-carbonyl)phenyl]benzamide]",–,–,–
–,–,"O=C(Nc1ccc(C(=O)N2CC3COCCN3C(=O)c3ccccc32)c(Cl)c1)c1ccccc1-c1ccccc1 (racemic) [Compound 21, (RS)-2-Phenyl-N-[3-chloro-4-(1,3,4,12a-tetrahydro-6H-[1,4]oxazino[4,3-a][1,4]-5-oxo-benzodiazepin-11(12H)-yl-carbonyl)phenyl]benzamide]",(59%/0.1 uM),–,"V1 Bdg (% inh, 0.1 uM) (human V-1 receptor): 2%"
–,–,"Cc1ccccc1C(=O)Nc1ccc(C(=O)N2CC3COCCN3Cc3ccccc32)cc1 (racemic) [Compound 26, (RS)-2-Methyl-N-[4-(1,3,4,12a-tetrahydro-6H-[1,4]oxazino[4,3-a][1,4]-benzodiazepin-11(12H)-yl-carbonyl)phenyl]benzamide]",(65%/0.1 uM),–,"V1 Bdg (% inh, 0.1 uM) (human V-1 receptor): 58%"
–,–,"COc1cc(NC(=O)c2ccccc2C)ccc1C(=O)N1CC2CN(C)CCN2Cc2ccccc21 (racemic) [Compound 83, (RS)-2-Methyl-N-[3-methoxy-4-(1,3,4,12a-tetrahydro-2-methyl-6H-[1,4]pyrazino[4,3-a][1,4]-benzodiazepin-11(12H)-yl-carbonyl)phenyl]benzamide]",(10%/0.1 uM),(44%/1 uM),–
–,–,"CN1CCN2Cc3ccccc3N(C(=O)c3ccc(NC(=O)c4cc(F)c(F)c(F)c4F)cc3Cl)CC2C1 (racemic) [Compound 93, (RS)-2,3,4,5-Tetrafluoro-N-[3-chloro-4-(1,3,4,12a-tetrahydro-2-methyl-6H-(1,4]pyrazino[4,3-a][1,4]-benzodiazepin-11(12H)-yl-carbonyl)phenyl]benzamide]",(24%/0.1 uM),(49%/1 uM),–
